The nature of series [1]: in vivo. The conditions noted are these: beagle, dog, po, 2 mg/kg.
A short description of series [2]: in vivo. Conditions: Wistar, rat, po, 2 mg/kg.
The nature of series [3]: in vivo. Conditions: Wistar, rat, po, 2 mg/kg. The source holds these as a separate data set.
A short description of series [4]: Metabolic stability in Beagle dog hepatocyte assessed as intrinsic clearance measured per 10^6 cells in presence of NADPH regenerating system by LC-MS/MS analysis. Conditions: hepatocytes.
Series [5] can be described thus: in vivo. The conditions noted are these: beagle, dog, po, 2 mg/kg. The source holds these as a separate data set.
The nature of series [6]: Half life in Wistar rat at 0.5 mg/kg, iv and 2 mg/kg, po. The conditions noted are these: in vivo.
Series [7] in a line: Lipophilicity, log D of the compound at pH 7.4. The conditions noted are these: buffer.
Series [8] in a line: Half life in Beagle dog at 0.5 mg/kg, iv and 2 mg/kg, po. Conditions: in vivo.
Series [9] in a line: Solubility of the compound in pH 7 buffer.
Series [10] is described as follows: in vivo. The conditions noted are these: Wistar, rat, po, 2 mg/kg. The source holds these as a separate data set.
Series [11] is described as follows: in vivo. Conditions: Wistar, rat, po, 2 mg/kg. This is another data set of the same source.
Series [12] in a line: in vivo. The conditions noted are these: beagle, dog, po, 2 mg/kg. The source holds these as a separate data set.
The nature of series [13]: Solubility of the compound in FeSSIF.
A short description of another series: in vitro. Conditions: human, microsomes.
Series [14] can be described thus: Metabolic stability in rat hepatocyte assessed as intrinsic clearance measured per 10^6 cells in presence of NADPH regenerating system by LC-MS/MS analysis. Conditions: hepatocytes.
A short description of series [15]: Solubility of the compound in FaSSIF.
Series [16] can be described thus: in vivo. Conditions: beagle, dog, po, 2 mg/kg. The source holds these as a separate data set.
Series [17] in a line: in vivo. Conditions: Balb/c, mouse, po, 10 mg/kg.
The target of series [18] is T1, hERG (Homo sapiens, UniProt Q12809). In words: Inhibition of hERG expressed in CHO cells 10 uM at by Q patch-clamp method relative to control.
T1 sequence (Q12809 whole entry): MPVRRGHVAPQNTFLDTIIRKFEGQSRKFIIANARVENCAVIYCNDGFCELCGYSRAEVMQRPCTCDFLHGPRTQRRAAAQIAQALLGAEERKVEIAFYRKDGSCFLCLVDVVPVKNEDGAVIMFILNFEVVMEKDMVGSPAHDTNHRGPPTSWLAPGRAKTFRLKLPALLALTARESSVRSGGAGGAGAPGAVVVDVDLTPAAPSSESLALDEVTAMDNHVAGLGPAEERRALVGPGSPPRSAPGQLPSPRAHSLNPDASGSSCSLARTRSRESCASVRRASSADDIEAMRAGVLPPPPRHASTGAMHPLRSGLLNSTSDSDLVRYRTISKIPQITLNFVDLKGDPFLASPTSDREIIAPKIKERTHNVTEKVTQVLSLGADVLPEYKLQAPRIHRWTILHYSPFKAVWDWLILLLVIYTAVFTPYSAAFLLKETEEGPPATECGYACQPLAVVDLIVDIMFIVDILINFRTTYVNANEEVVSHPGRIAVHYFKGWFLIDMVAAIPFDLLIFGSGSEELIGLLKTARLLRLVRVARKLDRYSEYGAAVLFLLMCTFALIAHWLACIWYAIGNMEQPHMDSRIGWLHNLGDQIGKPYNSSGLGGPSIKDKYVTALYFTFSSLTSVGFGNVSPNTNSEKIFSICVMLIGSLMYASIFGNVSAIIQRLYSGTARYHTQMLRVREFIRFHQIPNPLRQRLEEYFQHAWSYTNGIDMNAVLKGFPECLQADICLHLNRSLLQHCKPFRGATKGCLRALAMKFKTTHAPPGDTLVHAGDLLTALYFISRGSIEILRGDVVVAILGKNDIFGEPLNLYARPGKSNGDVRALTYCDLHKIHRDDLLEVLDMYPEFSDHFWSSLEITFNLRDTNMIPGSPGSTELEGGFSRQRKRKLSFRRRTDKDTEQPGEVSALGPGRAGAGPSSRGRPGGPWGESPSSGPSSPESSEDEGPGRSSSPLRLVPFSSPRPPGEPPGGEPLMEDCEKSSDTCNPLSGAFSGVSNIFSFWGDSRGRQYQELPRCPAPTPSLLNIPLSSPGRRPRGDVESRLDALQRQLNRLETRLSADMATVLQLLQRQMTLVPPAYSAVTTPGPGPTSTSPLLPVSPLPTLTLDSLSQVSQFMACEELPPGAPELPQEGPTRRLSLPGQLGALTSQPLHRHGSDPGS
Series [19] addresses T2, C-X-C chemokine receptor type 3 (Homo sapiens, UniProt P49682).
T2 sequence (P49682 whole entry): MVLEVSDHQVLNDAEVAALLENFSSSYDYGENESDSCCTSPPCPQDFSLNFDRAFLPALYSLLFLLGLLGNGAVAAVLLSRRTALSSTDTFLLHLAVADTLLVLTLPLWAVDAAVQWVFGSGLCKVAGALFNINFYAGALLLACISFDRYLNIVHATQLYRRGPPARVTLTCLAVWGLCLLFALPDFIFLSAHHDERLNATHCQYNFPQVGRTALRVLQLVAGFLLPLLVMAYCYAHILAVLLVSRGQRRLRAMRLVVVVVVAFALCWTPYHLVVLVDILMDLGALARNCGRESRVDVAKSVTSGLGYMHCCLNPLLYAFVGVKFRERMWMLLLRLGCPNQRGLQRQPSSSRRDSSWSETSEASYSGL
Description: Inhibition of CXCR3 receptor internalization in human venous whole blood incubated for 30 mins by flow cytometer analysis

Series [20] in a line: in vivo. Conditions: Balb/c, mouse, po, 10 mg/kg. The source holds these as a separate data set.
The target in series [21] is T3, Voltage-gated inwardly rectifying potassium channel KCNH2 (Homo sapiens, UniProt Q12809). In words: Inhibition of hERG expressed in CHO cells by Q patch-clamp method. On the technique in general: hERG is a cardiac potassium channel; its block is linked to QT prolongation.
T3 sequence (Q12809 whole entry): as the sequence (Q12809 whole entry) above
The target in series [22] is T2, C-X-C chemokine receptor type 3. This is another data set of the same source.
Description: Antagonist activity at recombinant human CXCR3 in human U2SO cells assessed as reduction in CXCL10-induced beta-arrestin recruitment by TANGO assay
Series [23] in a line: Fractional unbound plasma concentration in Balb/c mouse at 10 mg/kg, po.
The conditions of series [24]: human, microsomes, 1 µM.
Series [25] is described as follows: in vivo. Conditions: Balb/c, mouse, po, 10 mg/kg. This is another data set of the same source.
In series [26] the target is T2, C-X-C chemokine receptor type 3. The source holds these as a separate data set.
Description: Antagonist activity at recombinant human CXCR3 expressed in human CHO-K1 cells co-expressing Galpha15 incubated for 10 mins by Fluo-4AM dye based FLIPR assay
For series [27], the target named is T1, hERG. The experiment in a line: Inhibition of hERG expressed in CHO cells 3 uM at by Q patch-clamp method relative to control. Format: toxicity, cell-based. The conditions noted are these: CHO cells that express hERG.
A short description of series [28]: Fractional unbound plasma concentration in Wistar rat at 0.5 mg/kg, iv and 2 mg/kg, po. The conditions noted are these: in vivo.
A short description of series [29]: Fractional unbound plasma concentration in Beagle dog at 0.5 mg/kg, iv and 2 mg/kg, po.
Series [30] can be described thus: Half life in Wistar rat at 0.2 mg/kg, iv and 2 mg/kg, po. The conditions noted are these: in vivo.
A short description of series [31]: Fractional unbound plasma concentration in rat at 0.2 mg/kg, iv and 2 mg/kg, po.
Series [32] can be described thus: Fractional unbound plasma concentration in mouse at 1 mg/kg, iv and 10 mg/kg, po.
Series [33] can be described thus: Half life in BALB/c mouse at 1 mg/kg, iv and 10 mg/kg, po. The conditions noted are these: in vivo.
A short description of series [34]: in vivo. The conditions noted are these: Balb/c, mouse, po, 10 mg/kg. This is another data set of the same source.
Series [35] addresses T3, Voltage-gated inwardly rectifying potassium channel KCNH2. The experiment in a line: Inhibition of hERG by manual patch clamp method.

Values after ≈ are worked out from the molar mass of the structure shown.

Consider `Cc1nc(C)n(CC(=O)N2CCN(c3sc(C(F)(F)F)nc3-c3cnc(C(F)(F)F)nc3)C[C@H]2C)n1`, for which the bioavailability in the series “in vivo [1]” and in the series “in vivo [10]” was 80% each time. Besides, the Cmax came out at 1520 ng/mL in “in vivo [2]” and 1380 ng/mL in the series “in vivo [16]”. For the same molecule, the exposure (AUC) in “in vivo [3]” is 14000 ng·h/mL; in “in vivo [5]”, 20000 ng·h/mL. Moreover, the hepatocyte CLint in series [4] and in series [14] was less than 2 µL/min/1e6 cells in each case. The values for the half-life in [6] and in series [8] were 426 min and 870 min, respectively. This molecule also registered a logD in series [7] of 2.9. Also, the solubility turned out to be 387 µg/mL (≈ 724 µM) in series [9], 530 µg/mL (≈ 992 µM) in [13] and 450 µg/mL (≈ 842 µM) in series [15]. Besides, the time to peak (Tmax) was found to be 30 min in the series “in vivo [11]” and 60 min in “in vivo [12]”. In “in vitro”, this molecule showed a microsomal CLint at 1 µM of less than 10 µL/min/mg.
In the series “in vivo [17]”, `CCOc1ncc(-c2nc(C(F)(F)F)sc2N2CCN(C(=O)Cn3cnc4cccnc43)[C@H](C)C2)cn1` gave an AUC of 1590 ng·h/mL. Moreover, the inhibition at 10 µM on hERG [18] came out at 44%. Moreover, the IC50 in [19] came to 48 nM; in series [21], 13000 nM; in [22] it was 20 nM; in series [26], 2 nM. Moreover, the Tmax in the series “in vivo [20]” was determined as 30 min. In series [23], this molecule yielded a fraction unbound of 0.008. In series [24], this molecule registered a CLH of 4.5 mL/h/kg. Besides, the Cmax in the series “in vivo [25]” came to 1800 ng/mL.
Take `CCOc1ncc(-c2nc(C(F)(F)F)sc2N2CCN(C(=O)Cn3cnc(C(F)(F)F)n3)[C@H](C)C2)cn1`: the IC50 in [21] was more than 6000 nM. This molecule also showed an inhibition at 3 µM against hERG [27] of 31%.
On to `Cc1nc(C)n(CC(=O)N2CCN(c3sc(C(F)(F)F)nc3-c3cnc(OC(C)C)nc3)C[C@H]2C)n1`, for which, in the series “in vivo [2]”, the Cmax was found to be 806 ng/mL. In addition, in “in vivo [3]”, the AUC was 3980 ng·h/mL. Further, the hepatocyte CLint was determined as 6.8 µL/min/1e6 cells in series [4] and 2.5 µL/min/1e6 cells in [14]. Also, the IC50 is 216 nM in series [19], more than 20000 nM in series [21], 138 nM in [22] and 3.4 nM in series [26]. Besides, the fraction unbound worked out at 0.035 in series [28] and 0.192 in series [29]. Moreover, the half-life in [6] was 108 min. Further, the bioavailability in “in vivo [10]” was found to be 89%. Also, the Tmax in “in vivo [11]” came out at 30 min. In “in vitro”, the microsomal CLint at 1 µM came out at 16 µL/min/mg.
In “in vivo [2]”, `C[C@@H]1CN(c2sc(C(F)(F)F)nc2-c2nc3ccccc3[nH]2)CCN1C(=O)Cn1cnc2cccnc21` returned a peak concentration (Cmax) of 91.3 ng/mL. In addition, in [30], the half-life is 48 min. The same molecule displayed an area under the curve (AUC) in “in vivo [3]” of 191 ng·h/mL. In addition, the IC50 stood at 70 nM in series [19], 1750 nM in series [21], 31 nM in series [22] and 1.6 nM in series [26]. Also, the bioavailability in the series “in vivo [10]” was determined as 7%. For the same molecule, the Tmax in “in vivo [11]” came to 36 min. In “in vitro”, the intrinsic clearance (microsomal CLint) at 1 µM is 89 µL/min/mg. Moreover, the values for the fraction unbound in series [31] and in [32] were 0.017 and 0.01, respectively.
In “in vivo [17]”, `C[C@@H]1CN(c2scnc2-c2nc3ccccc3[nH]2)CCN1C(=O)Cn1cnc2cccnc21` registered an AUC of 60.7 ng·h/mL. Besides, the IC50 in series [19] was 554 nM; in [21], 2200 nM; in series [22], 830 nM; in series [26], 5.9 nM. Also, the Tmax in “in vivo [20]” is 60 min. The molecule also showed a half-life in series [33] of 6 min. This molecule had a microsomal CLint at 1 µM in “in vitro” of 12 µL/min/mg. For the same molecule, the concentration in “in vivo [25]” peaked (Cmax) at 95.2 ng/mL. In addition, the fraction unbound in series [32] was found to be 0.122. Further, the bioavailability in “in vivo [34]” is 4%.
For `CCOc1ncc(-c2nc(C(F)(F)F)sc2N2CCN(C(=O)Cn3nc(C)nc3C)[C@H](C)C2)cn1`, the bioavailability in “in vivo [1]” and in “in vivo [10]” was 52% in each case. The results for the AUC in the series “in vivo [17]”, in the series “in vivo [3]” and in “in vivo [5]” were 63600 ng·h/mL, 2850 ng·h/mL and 861 ng·h/mL, respectively. Moreover, the values for the Cmax in “in vivo [2]”, in “in vivo [25]” and in “in vivo [16]” were 574 ng/mL, 11600 ng/mL and 415 ng/mL, respectively. Further, the values for the hepatocyte CLint in series [4] and in series [14] were 5.1 µL/min/1e6 cells and less than 2 µL/min/1e6 cells, respectively. The half-maximal inhibitory concentration (IC50) in series [19] was 364 nM; in series [21], more than 20000 nM; in series [22], 173 nM; in series [35], 44000 nM; in series [26], 7 nM. In addition, the fraction unbound in series [28] came out at 0.101; in series [23] it was 0.023; in series [29], 0.328. In addition, the time of peak concentration (Tmax) in the series “in vivo [20]”, in “in vivo [11]” and in the series “in vivo [12]” was 30 min throughout. Further, the half-life was 372 min in series [6] and 60 min in series [8]. The molecule further yielded a logD in [7] of 2.8. This molecule also showed a microsomal CLint at 1 µM in the series “in vitro” of less than 10 µL/min/mg. The inhibition at 3 µM against hERG [27] was found to be 4%.

The bioavailability is dose-corrected exposure relative to a reference, in per cent. In general, Cmax refers to the maximum level reached in the sampled fluid or tissue. For orientation: AUC means the area under the concentration-time curve, a measure of exposure. A higher AUC goes with high exposure. Usually hepatocyte CLint stands for the capacity of the preparation to metabolise the compound, expressed as a volume cleared per time. What is called half-life is the time in which the quantity being followed falls by half. Broadly, the logD is the decadic logarithm of the distribution of all forms, ionised or not, between an organic phase and buffer at a given pH. High values mean higher lipophilicity, low ones lower lipophilicity. The term solubility denotes how much of the substance goes into solution per volume. A higher solubility goes with a readily soluble substance. As a reminder, the Tmax is the time at which the peak concentration occurs. The term microsomal CLint denotes the rate of metabolic loss divided by the concentration. Lower therefore signals slow turnover. The inhibition is the drop in the measured response relative to a control, in per cent. A higher inhibition goes with a strong effect. Broadly, the IC50 is the concentration at which inhibition is half-maximal. A high value points to weaker potency. For orientation: fraction unbound means free concentration divided by total concentration.

The values above are taken from ChEMBL document CHEMBL5126607, “Discovery and In Vivo Evaluation of ACT-660602: A Potent and Selective Antagonist of the Chemokine Receptor CXCR3 for Autoimmune Diseases” (J Med Chem, 2022).
